The values that follow come from patent US10072011B2, “Substituted bridged urea analogs as sirtuin modulators” (GlaxoSmithKline Intellectual Property (No.2) Limited, priority 2014, dated 2018).

The assay addresses T1, SIRT1 (Homo sapiens, UniProt Q96EB6).
T1 sequence (Q96EB6 1-747): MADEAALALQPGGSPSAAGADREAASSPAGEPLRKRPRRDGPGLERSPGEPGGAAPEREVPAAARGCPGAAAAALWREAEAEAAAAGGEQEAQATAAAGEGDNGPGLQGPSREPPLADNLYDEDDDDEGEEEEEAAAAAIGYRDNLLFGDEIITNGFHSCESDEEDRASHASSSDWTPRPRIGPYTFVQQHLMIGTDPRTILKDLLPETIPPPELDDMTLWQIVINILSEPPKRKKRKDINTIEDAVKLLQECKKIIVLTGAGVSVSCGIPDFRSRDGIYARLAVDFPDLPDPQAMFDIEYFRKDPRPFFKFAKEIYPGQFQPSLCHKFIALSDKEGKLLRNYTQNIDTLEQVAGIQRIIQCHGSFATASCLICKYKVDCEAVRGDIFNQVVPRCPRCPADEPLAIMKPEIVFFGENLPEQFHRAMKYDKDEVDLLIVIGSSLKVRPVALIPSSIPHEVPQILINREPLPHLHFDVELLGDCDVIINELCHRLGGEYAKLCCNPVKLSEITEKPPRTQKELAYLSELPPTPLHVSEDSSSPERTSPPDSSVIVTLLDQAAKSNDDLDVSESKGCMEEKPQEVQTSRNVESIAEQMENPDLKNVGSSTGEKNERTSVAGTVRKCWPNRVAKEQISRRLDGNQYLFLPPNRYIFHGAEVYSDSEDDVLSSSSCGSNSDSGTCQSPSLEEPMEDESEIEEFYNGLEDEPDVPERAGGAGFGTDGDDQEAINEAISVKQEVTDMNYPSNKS
The experiment in a line: Trp mass spectrometry assay of SIRT1 activation (Ac-R-H-K-K(Ac)-W-NH2 peptide). It is filed as biochemical. Particulars: Trp peptide 0.5 μM, 120 μM βNAD+, 10 nM SIRT1, 25 min at 25° C.; for Emax: 25 min, relative to control (100%), read-out: TRP MAX RESP (percent maximum fold activation). As for the experimental part: The Trp mass spectrometry assay was conducted as follows. […] The SIRT1 protein was obtained by cloning the SirT1 gene into a T7-promoter containing vector, which was then expressed in BL21(DE3) bacterial cells and purified as described in further detail below. Test compound was added at varying concentrations to this reaction mixture and the resulting reactions were monitored. After the 25 minute incubation with SIRT1, 10 μL of 10% formic acid was added to stop the reaction. The resulting reactions were sealed and frozen for later mass spec analysis. The relative SIRT1 activity was then determined by measuring the amount of O-acetyl-ADP-ribose (OAADPR) formed (or, alternatively, the amount of deacetylated Trp peptide generated) by the NAD-dependent sirtuin deacetylation reaction in the presence of varying concentrations of the test compound versus control reactions lacking the test compound. The degree to which the test agent activated deacetylation by SIRT1 was expressed as EC1.5 (i.e., the concentration of compound required to increase SIRT1 activity by 50% over the control lacking test compound), and Percent Maximum Activation (i.e., the maximum activity relative to control (100%) obtained for the test compound).
This time point was the same as that used for test compounds and, within the linear range, the endpoint represents a change in velocity.
For the above assay, SIRT1 protein was expressed and purified as follows. The SirT1 gene was cloned into a T7-promoter containing vector and transformed into BL21(DE3). The protein was expressed by induction with 1 mM IPTG as an N-terminal His-tag fusion protein at 18° C. overnight and harvested at 30,000×g. Cells were lysed with lysozyme in lysis buffer (50 mM Tris-HCl, 2 mM Tris[2-carboxyethyl]phosphine (TCEP), 10 μM ZnCl2, 200 mM NaCl) and further treated with sonication for 10 min for complete lysis. The protein was purified over a Ni-NTA column (Amersham) and fractions containing pure protein were pooled, concentrated and run over a sizing column (Sephadex S200 26/60 global). The peak containing soluble protein was collected and run on an Ion-exchange column (MonoQ). Gradient elution (200 mM-500 mM NaCl) yielded pure protein. This protein was concentrated and dialyzed against dialysis buffer (20 mM Tris-HCl, 2 mM TCEP) overnight. The protein was aliquoted and frozen at −80° C. until further use.
“NT” means not tested; “ND” means not determinable.

Some results are limits rather than exact numbers.

As for `O=C(NC1CCCOC1)c1ccc2c(n1)N(C(=O)Nc1ccccn1)[C@H]1CCN2C1` (stereo partly drawn) [Example 5, (4S)—N-5-(pyridin-2-yl)-N-7-(tetrahydro-2H-pyran-3-yl)-3,4-dihydro-1,4-methanopyrido [2,3-b] [1, 4] diazepine-5, 7(2H)-dicarboxamide], the Emax is above 150% and the “TRP Activity (EC1.5, concentration of test compound that results in 150% activation of SIRT1)” value was “B (EC1.5 1-25 μM)”.
With `O=C(NC1CCOC1)c1ccc2c(n1)N(C(=O)Nc1ccccn1)[C@H]1CCN2C1` (stereo partly drawn) [Example 6, (4S)—N-5-(pyridin-2-yl)-N-7-(tetrahydrofuran-3-yl)-3,4-dihydro-1,4-methano pyrido [2,3-b] [1, 4] diazepine-5, 7(2H)-dicarboxamide], the Emax was above 150% and the “TRP Activity (EC1.5, concentration of test compound that results in 150% activation of SIRT1)” value was “B (EC1.5 1-25 μM)”.
Regarding `O=C(NC1CCC1)c1ccc2c(n1)N(C(=O)Nc1ccccn1)[C@H]1CCN2C1` [Example 7, (4S)—N-7-cyclobutyl-N-5-(pyridin-2-yl)-3,4-dihydro-1,4-methanopyrido [2,3-b] [1, 4] diazepine-5, 7(2H)-dicarboxamide], the Emax is above 150% and the “TRP Activity (EC1.5, concentration of test compound that results in 150% activation of SIRT1)” value was “A (EC1.5<1 μM)”.
The corresponding values for `O=C(NC(CO)C(F)(F)F)c1ccc2c(n1)N(C(=O)Nc1ccccn1)[C@H]1CCN2C1` (stereo partly drawn) [Example 8, (4S)—N-5-(pyridin-2-yl)-N-7-(1,1,1-trifluoro-3-hydroxypropan-2-yl)-3,4-dihydro-1,4-methanopyrido[2,3-b][1,4]diazepine-5,7(2H)-dicarboxamide] are above 150% and “A (EC1.5<1 μM)”.
The corresponding values for `COCC(NC(=O)c1ccc2c(n1)N(C(=O)Nc1ccccn1)[C@H]1CCN2C1)C(F)(F)F` (stereo partly drawn) [Example 9, (4S)—N-5-(pyridin-2-yl)-N-7-(1,1,1-trifluoro-3-methoxypropan-2-yl)-3,4-dihydro-1,4-methanopyrido[2,3-b][1,4]diazepine-5,7(2H)-dicarboxamide] are above 150% and “A (EC1.5<1 μM)”.
The corresponding values for `CC(CO)NC(=O)c1ccc2c(n1)N(C(=O)Nc1ccccn1)[C@H]1CCN2C1` (stereo partly drawn) [Example 10, (4S)—N-7-(1-hydroxypropan-2-yl)-N-5-(pyridin-2-yl)-3,4-dihydro-1,4-methanopyrido [2,3-b] [1, 4] diazepine-5, 7(2H)-dicarboxamide] are above 150% and “B (EC1.5 1-25 μM)”.
Turning to `COCC(C)NC(=O)c1ccc2c(n1)N(C(=O)Nc1ccccn1)[C@H]1CCN2C1` (stereo partly drawn) [Example 11, (4S)—N-7-(1-methoxypropan-2-yl)-N-5-(pyridin-2-yl)-3,4-dihydro-1,4-methanopyrido [2,3-b] [1, 4] diazepine-5, 7(2H)-dicarboxamide], the Emax was above 150% and the “TRP Activity (EC1.5, concentration of test compound that results in 150% activation of SIRT1)” value is given as “B (EC1.5 1-25 μM)”.
The corresponding values for `COC(=O)CNC(=O)c1ccc2c(n1)N(C(=O)Nc1ccccn1)[C@H]1CCN2C1` [Example 12] are above 150% and “B (EC1.5 1-25 μM)”.
For `O=C(NCCO)c1ccc2c(n1)N(C(=O)Nc1ccccn1)[C@H]1CCN2C1` [Example 13, (4S)—N-7-(2-hydroxyethyl)-N-5-(pyridin-2-yl)-3,4-dihydro-1,4-methanopyrido [2,3-b] [1, 4] diazepine-5, 7(2H)-dicarboxamide], the Emax is above 150%.
Consider `O=C(O)CNC(=O)c1ccc2c(n1)N(C(=O)Nc1ccccn1)[C@H]1CCN2C1` [Example 14, 2-((4S)-5-(pyridin-2-ylcarbamoyl)-2,3,4,5-tetrahydro-1,4 methanopyrido[2,3-b][1,4]diazepine-7-carboxamido)acetic acid], for which the Emax was below 150% and the “TRP Activity (EC1.5, concentration of test compound that results in 150% activation of SIRT1)” value is reported as “C (EC1.5>25 μM)”.
The corresponding values for `CC(C)(C)CNC(=O)c1ccc2c(n1)N(C(=O)Nc1ccccn1)[C@H]1CCN2C1` [Example 15, (4S)—N-7-neopentyl-N-5-(pyridin-2-yl)-3,4-dihydro-1,4-methanopyrido[2,3-b][1,4]diazepine-5,7(2H)-dicarboxamide] are above 150% and “A (EC1.5<1 μM)”.
Consider `O=C(N[C@H](CO)C(F)(F)F)c1ccc2c(n1)N(C(=O)Nc1ccccn1)[C@H]1CCN2C1` [Example 16, (4S)—N5-(pyridin-2-yl)-N7-((R)-1,1,1-trifluoro-3-hydroxypropan-2-yl)-3,4-dihydro-1,4-methanopyrido[2,3-b][1,4]diazepine-5,7(2H)-dicarboxamide], for which the Emax is above 150% and the “TRP Activity (EC1.5, concentration of test compound that results in 150% activation of SIRT1)” value is “A (EC1.5<1 μM)”.
Take `O=C(NC1(CO)CC1)c1ccc2c(n1)N(C(=O)Nc1ccccn1)[C@H]1CCN2C1` [Example 17, (4S)—N7-(1-(hydroxymethyl)cyclopropyl)-N5-(pyridin-2-yl)-3,4-dihydro-1,4-methanopyrido[2,3-b][1,4]diazepine-5,7(2H)-dicarboxamide]: the Emax was above 150% and the “TRP Activity (EC1.5, concentration of test compound that results in 150% activation of SIRT1)” value was “B (EC1.5 1-25 μM)”.
For `C[C@@H](NC(=O)c1ccc2c(n1)N(C(=O)Nc1ccccn1)[C@H]1CCN2C1)C(F)(F)F` [Example 19, (4S)—N5-(pyridin-2-yl)-N7-((R)-1,1,1-trifluoropropan-2-yl)-3,4-dihydro-1,4-methanopyrido[2,3-b][1,4]diazepine-5,7(2H)-dicarboxamide], the Emax was above 150% and the “TRP Activity (EC1.5, concentration of test compound that results in 150% activation of SIRT1)” value is “A (EC1.5<1 μM)”.
For the molecule `O=C(NC1CC1(F)F)c1ccc2c(n1)N(C(=O)Nc1ccccn1)[C@H]1CCN2C1` (stereo partly drawn) [Example 20, (4S)—N7-(2,2-difluorocyclopropyl)-N5-(pyridin-2-yl)-3,4-dihydro-1,4-methanopyrido[2,3-b][1,4]diazepine-5,7(2H)-dicarboxamide], the Emax was above 150% and the “TRP Activity (EC1.5, concentration of test compound that results in 150% activation of SIRT1)” value is “A (EC1.5<1 μM)”.
The corresponding values for `Cc1ccnc(NC(=O)N2c3nc(C(=O)NC4CC4)ccc3N3CC[C@H]2C3)c1` [Example 22, (4S)—N7-cyclopropyl-N5-(4-methylpyridin-2-yl)-3,4-dihydro-1,4-methanopyrido[2,3-b][1,4]diazepine-5,7(2H)-dicarboxamide] are above 150% and “B (EC1.5 1-25 μM)”.
On to `Cn1cccc(NC(=O)N2c3nc(C(=O)NCC(F)(F)F)ccc3N3CC[C@H]2C3)c1=O` [Example 23, (4S)—N5-(1-methyl-2-oxo-1,2-dihydropyridin-3-yl)-N7-(2,2,2-trifluoroethyl)-3,4-dihydro-1,4-methanopyrido[2,3-b][1,4]diazepine-5,7(2H)-dicarboxamide], for which the Emax was above 150% and the “TRP Activity (EC1.5, concentration of test compound that results in 150% activation of SIRT1)” value was “A (EC1.5<1 μM)”.
The corresponding values for `O=C(NC1CC1)c1ccc2c(n1)N(C(=O)Nc1cc(OC[C@H](O)CO)ccn1)[C@H]1CCN2C1` [Example 24, (4S)—N7-cyclopropyl-N5-(4-((R)-2,3-dihydroxypropoxy)pyridin-2-yl)-3,4-dihydro-1,4-methanopyrido[2,3-b][1,4]diazepine-5,7(2H)-dicarboxamide] are above 150% and “B (EC1.5 1-25 μM)”.
